Type in all cases: cell-based
Assay [1] addresses T1, Src (Homo sapiens, UniProt P12931).
T1 construct: endogenous in cells; host or cells: HeLa
Put plainly: EGF-induced FRET response of Src reporter in HeLa cells. As to the method:
The HeLa or MEF cells expressing the desired exogenous proteins were starved with 0.5% FBS for 36-48 h before being subjected to EGF (50 ng ml^−1) or PDGF (10 ng ml^−1) stimulation. During imaging, the cells were maintained in Hanks' balanced salt solution (HBSS) with 20 mMHEPES (pH 7.4) and 2 g 1^−1 D-glucose at 25° C. Images were collected by using MetaFluor 6.0 software (Universal Imaging) with a 440DF20 excitation filter, a 455DRLP dichroic mirror, and two emission filters controlled by a filter changer (480DF30 for CFP and 535DF25 for YFP).
The various plasmids were transfected into HeLa, MEF, SYF−/−, or 293 cells at 80% confluence using the lipofectamine method (Invitrogen). The RetroMax retroviral expression system (Imgenex) was used to introduce genes into HUVECs. Various Src reporters incorporated in PCLNCX vector were co-transfected with PCL-Ampho packaging vector into 293 cells by using lipofectamine. The supernatant of […] 293 cells was collected after 2 days of transfection and filtered through 0.45 um pore filters. HUVECs were infected with 1:1 mixture of the collected supernatant and fresh EGM in the presence of 8 ug/ml polybrene.

For assay [2], the target named is T1, Src. As to the kind of experiment: Fibronectin-coated bead / laser-tweezer force-induced FRET response in HUVECs. The following applies: HUVECs expressing Src reporter, PP1 10 uM. As to the method:
(§1) To image the mechanical-force-induced Src activation, HUVECs were first starved with 0.5% FBS for 24 h and then kept in CO2-independent medium without serum (Gibco BRL) at 37° C. in a thermostatic chamber. A Zeiss axiovert inverted microscope equipped with a 440DF20 excitation filter and a 455DRLP dichroic mirror was integrated with the laser-tweezers. CFP and YFP emission images were acquired simultaneously with an ORCA ER CCD camera (Hamamatsu) through a Dual-View module (Optical-Insights). The CFP and YFP images were aligned pixel-by-pixel with our customized Matlab program by maximizing the normalized cross correlation coefficient of CFP and YFP fluorescence intensity images:
(§2) By taking the derivative of rho 2/B(κ) in Otsu's method 30 and calculating its first local minimum, a non parametric method was developed to calculate the intensity threshold to differentiate the edges of HUVECs from the background in CFP or YFP fluorescence intensity images. The intensity threshold was used to generate a binary mask image with values outside the cell set at zero to select the pixels located within the cell body in the CFP/YFP emission ratio images. […] For statistical analysis of long-range activation of Src, a pixel located within a cell at a given time is defined as ‘distally activated’ when: (1) its emission ratio value is above a certain percentage (98%, 90%, 80% and 50% were used as the thresholds) of pixel population in the same cell after 15 min of force stimulation, and (2) the distance between the pixel and the centre of the force-imposed bead is larger than half of the virtual radius of the cell, as shown in the following formula: […]
(§3) This critical force is a measure of the maximum trapping force, at a given laser power, exerted on the bead. […] Since the maximum trapping force occurs when the laser focus is away from the center and close to the edge of the bead, the experimental trapping force with the laser focused at 3.7 um off the bead center in our experiments was calculated from the Ashkin model of trapping force to be 300 pN. […]

The subject of assay [3] is Src. The assay is described as above. The following applies: HUVECs, membrane-targeted reporter, 300 pN; 1 hr incubation (cytochalasin D 0.2 uM, Nocodazole 1 uM); distal, but not local, responses. On the procedure:
as §1, §2, §3

T1 sequence (P12931 whole entry, species assumed): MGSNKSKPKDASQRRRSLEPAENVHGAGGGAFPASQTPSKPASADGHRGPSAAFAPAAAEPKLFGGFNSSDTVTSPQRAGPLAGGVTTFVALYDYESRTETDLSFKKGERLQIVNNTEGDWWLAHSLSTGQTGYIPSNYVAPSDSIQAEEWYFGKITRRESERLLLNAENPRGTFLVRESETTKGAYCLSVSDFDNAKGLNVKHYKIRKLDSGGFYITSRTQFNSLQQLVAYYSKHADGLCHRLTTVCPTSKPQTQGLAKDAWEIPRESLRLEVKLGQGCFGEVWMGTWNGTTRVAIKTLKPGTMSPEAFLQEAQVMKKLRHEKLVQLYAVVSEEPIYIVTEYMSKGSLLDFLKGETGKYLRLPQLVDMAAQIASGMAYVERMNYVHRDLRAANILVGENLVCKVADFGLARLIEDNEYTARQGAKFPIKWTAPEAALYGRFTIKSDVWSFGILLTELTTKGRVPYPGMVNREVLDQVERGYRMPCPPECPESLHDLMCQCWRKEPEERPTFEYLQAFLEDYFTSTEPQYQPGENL

With `Cc1ccc(-c2nn(C(C)(C)C)c3ncnc(N)c23)cc1` [PP1], at Src [1] (EGF 50 ng/ml, PP1 10 uM), the “effect on EGF-induced FRET response of membrane-targeted reporter, inhibitor added after EGF” value is “reversed”. Besides, the “effect on EGF-induced FRET response of membrane-targeted reporter, pretreatment with inhibitor” value on Src [1] (PP1 10 uM for 1 hr before EGF 50 ng/ml) was “prevented”. On Src [1] (cytosolic Src reporter), the “effect on EGF-induced FRET response of Src reporter, inhibitor added after EGF” value is given as “reversed” and the “effect on EGF-induced FRET response of Src reporter, pretreatment with inhibitor” value is recorded as “markedly reduced”. Moreover, on Src [2], the “effect on local FRET response caused by fibronectin-coated beads” value is recorded as “reversible”.

Consider `C=C1[C@@H](C)[C@H]2[C@H](Cc3ccccc3)NC(=O)[C@]23[C@H](OC(C)=O)/C=C/[C@@](C)(O)C(=O)[C@@H](C)C/C=C/[C@H]3[C@@H]1O` [cytochalasin D], for which, in the assay with Src [3], the “effect on force-induced distal FRET responses” value is recorded as “blocked”.

Consider `COC(=O)Nc1nc2ccc(C(=O)c3cccs3)cc2[nH]1` [nocodazole], for which the “effect on force-induced distal FRET responses” value with Src [3] is recorded as “blocked”.
